Results reported in patent publication US12150998B2, “Bicyclic peptide ligands specific for P-selectin” (BicycleTx Limited, priority 2021, dated 2024).
Read-outs that look alike come from different tables or passages of the source.

Target: T1, human P-Selectin protein (Homo sapiens, UniProt P16109)
T1 sequence (P16109 42-830): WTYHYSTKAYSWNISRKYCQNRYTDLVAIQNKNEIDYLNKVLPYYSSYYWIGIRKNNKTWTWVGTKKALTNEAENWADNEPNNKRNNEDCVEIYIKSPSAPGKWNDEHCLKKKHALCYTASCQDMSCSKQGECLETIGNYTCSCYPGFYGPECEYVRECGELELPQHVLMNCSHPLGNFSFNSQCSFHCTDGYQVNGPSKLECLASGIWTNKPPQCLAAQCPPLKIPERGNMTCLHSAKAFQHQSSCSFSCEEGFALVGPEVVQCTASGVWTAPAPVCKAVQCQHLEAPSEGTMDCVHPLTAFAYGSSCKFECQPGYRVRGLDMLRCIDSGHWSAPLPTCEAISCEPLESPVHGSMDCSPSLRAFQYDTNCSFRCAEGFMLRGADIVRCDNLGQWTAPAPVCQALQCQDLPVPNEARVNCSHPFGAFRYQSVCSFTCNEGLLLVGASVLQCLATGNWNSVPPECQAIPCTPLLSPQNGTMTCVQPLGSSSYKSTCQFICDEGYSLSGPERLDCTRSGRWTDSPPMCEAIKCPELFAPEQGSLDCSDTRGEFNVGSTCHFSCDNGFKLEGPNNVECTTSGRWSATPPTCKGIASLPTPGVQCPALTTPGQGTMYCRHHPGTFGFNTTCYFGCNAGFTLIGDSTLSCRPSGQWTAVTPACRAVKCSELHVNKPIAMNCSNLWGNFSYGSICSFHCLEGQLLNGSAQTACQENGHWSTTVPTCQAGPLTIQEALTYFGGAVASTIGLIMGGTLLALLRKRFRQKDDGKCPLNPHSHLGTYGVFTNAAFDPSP
Test: SPR binding assay (Biacore)
Conditions: recombinant biotinylated human P-Selectin, 25° C.
Description: Biacore experiments were performed to determine ka (M−1s−1), kd (s−1), KD (nM) values of monomeric peptides binding to human Selectin proteins. Recombinant biotinylated human P-Selectin protein was used. For analysis of binding, either a Biacore 3000 or 5200 instrument was used with a CMS sensor chip (GE Healthcare). For sensor chip surface preparation, streptavidin was immobilized on the chip using standard amine-coupling chemistry at 25° C. with HBS-N (10 mM HEPES, 0.15 M NaCl, pH 7.4) as the running buffer. The carboxymethyl dextran surface was activated with a 12 min injection of a 1:1 ratio of 0.4 M 1-ethyl-3-(3-dim ethyl aminopropyl) carbodiimide hydrochloride (EDC)/0.1 M N-hydroxy succinimide (NHS) at a flow rate of 10 μl/min. For capture of streptavidin, protein was diluted to 0.2 mg/ml in 10 mM sodium acetate (pH 4.5) and captured by injecting 70 μl onto the activated chip surface. Residual activated groups were blocked with a 7 min injection of 1 M ethanolamine (pH 8.5). Biotinylated protein stock was diluted 1:100 in HBS-N and captured on one flow cell at 5 μl/min to a level of 1000-1500 RU. Buffer was changed to PBS/0.05% Tween 20 and a dilution series of the peptides was prepared in this buffer with a final DMSO concentration of 0.5%. The top concentration of the analyte varied from 200 nM to 50 μM; depending on predicted affinity of the interaction. In all cases a titration was performed with either seven 2-fold dilutions or five 3-fold dilutions. The SPR analysis was run at 25° C. with a flow rate of 50-80 μl/min with 60 seconds association and a suitable disassociation period (100-900 seconds). Data were corrected for DMSO excluded volume effects. All data were double-referenced for blank injections and reference surface using standard processing procedures and data processing and kinetic fitting were performed using Scrubber software, version 2.0c (BioLogic Software). Data were fitted using mass transport model allowing for mass transport effects where appropriate.

Row | Kd (read-out: Affinity KD determined by SPR) | Structure (SMILES) | Kd (Affinity KD determined by SPR)
1 | – | CSCC[C@@H]1NC(=O)[C@H](Cc2ccc(O)cc2)NC(=O)[C@@H](NC(=O)[C@H](C)NC(C)=O)CSCCC(=O)N2CN3CN(C2)C(=O)CCSC[C@H](NC(=O)[C@H](Cc2c[nH]c4ccccc24)NC(=O)[C@H](CCC(=O)O)NC1=O)C(=O)N[C@@H](CC(=O)O)C(=O)N[C@@H](C(C)C)C(=O)N[C@@H]([C@@H](C)O)C(=O)N[C@@H](CC(=O)O)C(=O)N[C@@H](Cc1ccc(O)cc1)C(=O)NCC(=O)N[C@H](C(=O)N[C@@H](CCCCNC(=O)CCc1cn(CCOCCOCCOCCOCCOCCOCCOCCOCCOCCOCCNC(=O)CCOCC(COCCC(=O)NCCOCCOCCOCCOCCOCCOCCOCCOCCOCCOCCn2cc(CCC(=O)NCCCC[C@H](NC(=O)[C@@H]4CSCCC(=O)N5CN6CN(C5)C(=O)CCSC[C@H](NC(=O)[C@H](Cc5c[nH]c7ccccc57)NC(=O)[C@H](CCC(=O)O)NC(=O)[C@H](CCSC)NC(=O)[C@H](Cc5ccc(O)cc5)NC(=O)[C@@H](NC(=O)[C@H](C)NC(C)=O)CSCCC6=O)C(=O)N[C@@H](CC(=O)O)C(=O)N[C@@H](C(C)C)C(=O)N[C@@H]([C@@H](C)O)C(=O)N[C@@H](CC(=O)O)C(=O)N[C@@H](Cc5ccc(O)cc5)C(=O)NCC(=O)N4)C(N)=O)nn2)(COCCC(=O)NCCOCCOCCOCCOCCOCCOCCOCCOCCOCCOCCn2cc(CCC(=O)NCCCC[C@H](NC(=O)[C@@H]4CSCCC(=O)N5CN6CN(C5)C(=O)CCSC[C@H](NC(=O)[C@H](Cc5c[nH]c7ccccc57)NC(=O)[C@H](CCC(=O)O)NC(=O)[C@H](CCSC)NC(=O)[C@H](Cc5ccc(O)cc5)NC(=O)[C@@H](NC(=O)[C@H](C)NC(C)=O)CSCCC6=O)C(=O)N[C@@H](CC(=O)O)C(=O)N[C@@H](C(C)C)C(=O)N[C@@H]([C@@H](C)O)C(=O)N[C@@H](CC(=O)O)C(=O)N[C@@H](Cc5ccc(O)cc5)C(=O)NCC(=O)N4)C(N)=O)nn2)COCCC(=O)NCCOCCOCCOCCOCCOCCOCCOCCOCCOCCOCCn2cc(CCC(=O)NCCCC[C@H](NC(=O)[C@@H]4CSCCC(=O)N5CN6CN(C5)C(=O)CCSC[C@H](NC(=O)[C@H](Cc5c[nH]c7ccccc57)NC(=O)[C@H](CCC(=O)O)NC(=O)[C@H](CCSC)NC(=O)[C@H](Cc5ccc(O)cc5)NC(=O)[C@@H](NC(=O)[C@H](C)NC(C)=O)CSCCC6=O)C(=O)N[C@@H](CC(=O)O)C(=O)N[C@@H](C(C)C)C(=O)N[C@@H]([C@@H](C)O)C(=O)N[C@@H](CC(=O)O)C(=O)N[C@@H](Cc5ccc(O)cc5)C(=O)NCC(=O)N4)C(N)=O)nn2)nn1)C(N)=O)CSCCC3=O [BCY5464] | 0.0373 µM
2 | 0.4 µM | CSCC[C@@H]1NC(=O)[C@H](Cc2ccc(O)cc2)NC(=O)[C@@H](NC(=O)[C@H](C)NC(=O)CCc2cn(CCOCCOCCOCCOCCOCCOCCOCCOCCOCCOCCNC(=O)CCOCCN(CCOCCC(=O)NCCOCCOCCOCCOCCOCCOCCOCCOCCOCCOCCn3cc(CCC(=O)N[C@@H](C)C(=O)N[C@H]4CSCCC(=O)N5CN6CN(C5)C(=O)CCSC[C@H](NC(=O)[C@H](Cc5c[nH]c7ccccc57)NC(=O)[C@H](CCC(=O)O)NC(=O)[C@H](CCSC)NC(=O)[C@H](Cc5ccc(O)cc5)NC4=O)C(=O)N[C@@H](CC(=O)O)C(=O)N[C@@H](C(C)C)C(=O)N[C@@H]([C@@H](C)O)C(=O)N[C@@H](CC(=O)O)C(=O)N[C@@H](Cc4ccc(O)cc4)C(=O)NCC(=O)N[C@H](C(=O)N[C@@H](C)C(N)=O)CSCCC6=O)nn3)CCOCCC(=O)NCCOCCOCCOCCOCCOCCOCCOCCOCCOCCOCCn3cc(CCC(=O)N[C@@H](C)C(=O)N[C@H]4CSCCC(=O)N5CN6CN(C5)C(=O)CCSC[C@H](NC(=O)[C@H](Cc5c[nH]c7ccccc57)NC(=O)[C@H](CCC(=O)O)NC(=O)[C@H](CCSC)NC(=O)[C@H](Cc5ccc(O)cc5)NC4=O)C(=O)N[C@@H](CC(=O)O)C(=O)N[C@@H](C(C)C)C(=O)N[C@@H]([C@@H](C)O)C(=O)N[C@@H](CC(=O)O)C(=O)N[C@@H](Cc4ccc(O)cc4)C(=O)NCC(=O)N[C@H](C(=O)N[C@@H](C)C(N)=O)CSCCC6=O)nn3)nn2)CSCCC(=O)N2CN3CN(C2)C(=O)CCSC[C@H](NC(=O)[C@H](Cc2c[nH]c4ccccc24)NC(=O)[C@H](CCC(=O)O)NC1=O)C(=O)N[C@@H](CC(=O)O)C(=O)N[C@@H](C(C)C)C(=O)N[C@@H]([C@@H](C)O)C(=O)N[C@@H](CC(=O)O)C(=O)N[C@@H](Cc1ccc(O)cc1)C(=O)NCC(=O)N[C@H](C(=O)N[C@@H](C)C(N)=O)CSCCC3=O [BCY5458] | –
